{
  "source": "the NIST ThermoML archive (doi:10.1016/j.tca.2005.11.021)",
  "experiment": "molar heat capacity at constant pressure",
  "conditions": "101.33 kPa, Crystal, Small (less than 1 g) adiabatic calorimetry",
  "note": "± gives the expanded uncertainty stated by the source.",
  "data": [
    {"molecule": "N[C@@H](CCC(=O)[O-])C(=O)[O-].N[C@@H](CCC(=O)[O-])C(=O)[O-].O.O.O.O.O.O.O.O.O.[Ho+3].[Ho+3].[O-][Cl+3]([O-])([O-])O.[O-][Cl+3]([O-])([O-])O.[O-][Cl+3]([O-])([O-])[O-].[O-][Cl+3]([O-])([O-])[O-]", "note": "[diholmium tetraperchlorate bis-l-glutamate nonahydrate]", "values": [
      {"measurement": "molar heat capacity at constant pressure", "setting": "78.47 K", "value": "416.36 ± 1.8", "unit": "J/K/mol"},
      {"measurement": "molar heat capacity at constant pressure", "setting": "79.95 K", "value": "427.06 ± 1.8", "unit": "J/K/mol"},
      {"measurement": "molar heat capacity at constant pressure", "setting": "81.58 K", "value": "448.95 ± 1.9", "unit": "J/K/mol"},
      {"measurement": "molar heat capacity at constant pressure", "setting": "83.14 K", "value": "457.5 ± 1.9", "unit": "J/K/mol"},
      {"measurement": "molar heat capacity at constant pressure", "setting": "84.69 K", "value": "466.74 ± 2", "unit": "J/K/mol"},
      {"measurement": "molar heat capacity at constant pressure", "setting": "86.44 K", "value": "480.65 ± 2", "unit": "J/K/mol"},
      {"measurement": "molar heat capacity at constant pressure", "setting": "88.37 K", "value": "490.26 ± 2.1", "unit": "J/K/mol"},
      {"measurement": "molar heat capacity at constant pressure", "setting": "90.58 K", "value": "502.33 ± 1.9", "unit": "J/K/mol"},
      {"measurement": "molar heat capacity at constant pressure", "setting": "93.05 K", "value": "521.47 ± 1.9", "unit": "J/K/mol"},
      {"measurement": "molar heat capacity at constant pressure", "setting": "95.51 K", "value": "537.31 ± 2", "unit": "J/K/mol"},
      {"measurement": "molar heat capacity at constant pressure", "setting": "97.87 K", "value": "558.72 ± 2.1", "unit": "J/K/mol"},
      {"measurement": "molar heat capacity at constant pressure", "setting": "100.23 K", "value": "562.37 ± 2.1", "unit": "J/K/mol"},
      {"measurement": "molar heat capacity at constant pressure", "setting": "102.52 K", "value": "570.54 ± 2.1", "unit": "J/K/mol"},
      {"measurement": "molar heat capacity at constant pressure", "setting": "104.79 K", "value": "579.03 ± 2.1", "unit": "J/K/mol"},
      {"measurement": "molar heat capacity at constant pressure", "setting": "107.01 K", "value": "584.28 ± 2.1", "unit": "J/K/mol"},
      {"measurement": "molar heat capacity at constant pressure", "setting": "109.19 K", "value": "599.35 ± 2.2", "unit": "J/K/mol"},
      {"measurement": "molar heat capacity at constant pressure", "setting": "111.54 K", "value": "612.05 ± 2.2", "unit": "J/K/mol"},
      {"measurement": "molar heat capacity at constant pressure", "setting": "114.01 K", "value": "619.47 ± 2.3", "unit": "J/K/mol"},
      {"measurement": "molar heat capacity at constant pressure", "setting": "116.69 K", "value": "633.45 ± 2.3", "unit": "J/K/mol"},
      {"measurement": "molar heat capacity at constant pressure", "setting": "119.55 K", "value": "640.47 ± 2.3", "unit": "J/K/mol"},
      {"measurement": "molar heat capacity at constant pressure", "setting": "122.36 K", "value": "656.69 ± 2.4", "unit": "J/K/mol"},
      {"measurement": "molar heat capacity at constant pressure", "setting": "125.12 K", "value": "670.24 ± 2.4", "unit": "J/K/mol"},
      {"measurement": "molar heat capacity at constant pressure", "setting": "127.84 K", "value": "678.7 ± 2.5", "unit": "J/K/mol"},
      {"measurement": "molar heat capacity at constant pressure", "setting": "130.52 K", "value": "691.49 ± 2.5", "unit": "J/K/mol"},
      {"measurement": "molar heat capacity at constant pressure", "setting": "133.16 K", "value": "703.15 ± 2.5", "unit": "J/K/mol"},
      {"measurement": "molar heat capacity at constant pressure", "setting": "136.41 K", "value": "717.73 ± 2.6", "unit": "J/K/mol"},
      {"measurement": "molar heat capacity at constant pressure", "setting": "140.25 K", "value": "728.41 ± 2.6", "unit": "J/K/mol"},
      {"measurement": "molar heat capacity at constant pressure", "setting": "144.03 K", "value": "745.38 ± 2.7", "unit": "J/K/mol"},
      {"measurement": "molar heat capacity at constant pressure", "setting": "147.75 K", "value": "759.44 ± 2.8", "unit": "J/K/mol"},
      {"measurement": "molar heat capacity at constant pressure", "setting": "151.88 K", "value": "781.07 ± 2.8", "unit": "J/K/mol"},
      {"measurement": "molar heat capacity at constant pressure", "setting": "156.39 K", "value": "802.41 ± 2.9", "unit": "J/K/mol"},
      {"measurement": "molar heat capacity at constant pressure", "setting": "160.82 K", "value": "822.03 ± 3", "unit": "J/K/mol"},
      {"measurement": "molar heat capacity at constant pressure", "setting": "165.17 K", "value": "841.38 ± 3", "unit": "J/K/mol"},
      {"measurement": "molar heat capacity at constant pressure", "setting": "169.46 K", "value": "860.32 ± 3.1", "unit": "J/K/mol"},
      {"measurement": "molar heat capacity at constant pressure", "setting": "173.69 K", "value": "880.13 ± 3.2", "unit": "J/K/mol"},
      {"measurement": "molar heat capacity at constant pressure", "setting": "177.85 K", "value": "903.04 ± 3.2", "unit": "J/K/mol"},
      {"measurement": "molar heat capacity at constant pressure", "setting": "181.91 K", "value": "962.58 ± 3.5", "unit": "J/K/mol"},
      {"measurement": "molar heat capacity at constant pressure", "setting": "185.82 K", "value": "1035.9 ± 3.7", "unit": "J/K/mol"},
      {"measurement": "molar heat capacity at constant pressure", "setting": "189.62 K", "value": "1053.8 ± 3.8", "unit": "J/K/mol"},
      {"measurement": "molar heat capacity at constant pressure", "setting": "193.38 K", "value": "1068 ± 3.8", "unit": "J/K/mol"},
      {"measurement": "molar heat capacity at constant pressure", "setting": "197.09 K", "value": "1084.5 ± 3.9", "unit": "J/K/mol"},
      {"measurement": "molar heat capacity at constant pressure", "setting": "200.76 K", "value": "1104.7 ± 3.9", "unit": "J/K/mol"},
      {"measurement": "molar heat capacity at constant pressure", "setting": "204.4 K", "value": "1116.6 ± 4", "unit": "J/K/mol"},
      {"measurement": "molar heat capacity at constant pressure", "setting": "208 K", "value": "1131.5 ± 4", "unit": "J/K/mol"},
      {"measurement": "molar heat capacity at constant pressure", "setting": "211.57 K", "value": "1149.2 ± 4.1", "unit": "J/K/mol"},
      {"measurement": "molar heat capacity at constant pressure", "setting": "215.09 K", "value": "1170.1 ± 4.2", "unit": "J/K/mol"},
      {"measurement": "molar heat capacity at constant pressure", "setting": "218.58 K", "value": "1180.3 ± 4.2", "unit": "J/K/mol"},
      {"measurement": "molar heat capacity at constant pressure", "setting": "222.04 K", "value": "1198 ± 4.3", "unit": "J/K/mol"},
      {"measurement": "molar heat capacity at constant pressure", "setting": "225.47 K", "value": "1211.6 ± 4.3", "unit": "J/K/mol"},
      {"measurement": "molar heat capacity at constant pressure", "setting": "228.86 K", "value": "1235.1 ± 4.4", "unit": "J/K/mol"},
      {"measurement": "molar heat capacity at constant pressure", "setting": "232.19 K", "value": "1241.6 ± 4.4", "unit": "J/K/mol"},
      {"measurement": "molar heat capacity at constant pressure", "setting": "235.57 K", "value": "1256.3 ± 4.5", "unit": "J/K/mol"},
      {"measurement": "molar heat capacity at constant pressure", "setting": "239.35 K", "value": "1265.1 ± 4.5", "unit": "J/K/mol"},
      {"measurement": "molar heat capacity at constant pressure", "setting": "243.62 K", "value": "1286.5 ± 4.6", "unit": "J/K/mol"},
      {"measurement": "molar heat capacity at constant pressure", "setting": "247.83 K", "value": "1297.2 ± 4.6", "unit": "J/K/mol"},
      {"measurement": "molar heat capacity at constant pressure", "setting": "252.02 K", "value": "1318.1 ± 4.7", "unit": "J/K/mol"},
      {"measurement": "molar heat capacity at constant pressure", "setting": "256.17 K", "value": "1324 ± 4.7", "unit": "J/K/mol"},
      {"measurement": "molar heat capacity at constant pressure", "setting": "260.28 K", "value": "1339.5 ± 4.8", "unit": "J/K/mol"},
      {"measurement": "molar heat capacity at constant pressure", "setting": "264.35 K", "value": "1355.8 ± 4.8", "unit": "J/K/mol"},
      {"measurement": "molar heat capacity at constant pressure", "setting": "268.38 K", "value": "1368.2 ± 4.9", "unit": "J/K/mol"},
      {"measurement": "molar heat capacity at constant pressure", "setting": "272.36 K", "value": "1390.1 ± 4.9", "unit": "J/K/mol"},
      {"measurement": "molar heat capacity at constant pressure", "setting": "276.3 K", "value": "1406.8 ± 5", "unit": "J/K/mol"},
      {"measurement": "molar heat capacity at constant pressure", "setting": "280.21 K", "value": "1418.2 ± 5", "unit": "J/K/mol"},
      {"measurement": "molar heat capacity at constant pressure", "setting": "284.86 K", "value": "1435.3 ± 5.1", "unit": "J/K/mol"},
      {"measurement": "molar heat capacity at constant pressure", "setting": "290.1 K", "value": "1457.8 ± 5.2", "unit": "J/K/mol"},
      {"measurement": "molar heat capacity at constant pressure", "setting": "295.36 K", "value": "1477.1 ± 5.2", "unit": "J/K/mol"},
      {"measurement": "molar heat capacity at constant pressure", "setting": "300.5 K", "value": "1499 ± 5.3", "unit": "J/K/mol"},
      {"measurement": "molar heat capacity at constant pressure", "setting": "305.57 K", "value": "1521.1 ± 5.4", "unit": "J/K/mol"},
      {"measurement": "molar heat capacity at constant pressure", "setting": "310.61 K", "value": "1529.2 ± 5.4", "unit": "J/K/mol"},
      {"measurement": "molar heat capacity at constant pressure", "setting": "315.6 K", "value": "1558.3 ± 5.5", "unit": "J/K/mol"},
      {"measurement": "molar heat capacity at constant pressure", "setting": "320.54 K", "value": "1577.6 ± 5.6", "unit": "J/K/mol"},
      {"measurement": "molar heat capacity at constant pressure", "setting": "325.43 K", "value": "1599.1 ± 5.7", "unit": "J/K/mol"},
      {"measurement": "molar heat capacity at constant pressure", "setting": "330.3 K", "value": "1607 ± 5.7", "unit": "J/K/mol"},
      {"measurement": "molar heat capacity at constant pressure", "setting": "335.02 K", "value": "1641.9 ± 5.8", "unit": "J/K/mol"},
      {"measurement": "molar heat capacity at constant pressure", "setting": "339.66 K", "value": "1649.4 ± 5.8", "unit": "J/K/mol"},
      {"measurement": "molar heat capacity at constant pressure", "setting": "344.14 K", "value": "1668.3 ± 5.9", "unit": "J/K/mol"}
    ]}
  ]
}
